Values joined by “and” are separate entries in the source; they are usually repeats but may differ in a detail not shown here. Equal values may be shown once. Inconclusive results and toxic doses are left out. No stated cut-off is given here; in the data, active means T/C of 150% or more; inactive means T/C below 125%.
System: L1210 leukemia ip in BDF1 mice, survival T/C
Experiment: NCI In Vivo Anticancer Drug Screen. Data for tumor model L1210 Leukemia (intraperitoneal) in B6D2F1 (BDF1) mice
Conditions: endpoint: mean survival time, higher = longer survival
Summary of the method: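 Survival endpoint. Drug-treated group vs vehicle group, expressed as T divided by C. Tumor passaged by transplantation.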

[1] = dose: 100.0 mg/kg/injection, schedule: Q01DX009 (ip), vehicle: Klucel (hydroxypropylcellulose) (HPC)
[2] = dose: 200.0 mg/kg/injection, schedule: Q01DX009 (ip), vehicle: Klucel (hydroxypropylcellulose) (HPC)
[3] = dose: 400.0 mg/kg/injection, schedule: Q01DX009 (ip), vehicle: Klucel (hydroxypropylcellulose) (HPC)
[4] = dose: 100.0 mg/kg/injection, schedule: Q01DX009 (ip), vehicle: gum acacia
[5] = dose: 200.0 mg/kg/injection, schedule: Q01DX009 (ip), vehicle: gum acacia
[6] = dose: 400.0 mg/kg/injection, schedule: Q01DX009 (ip), vehicle: gum acacia
[7] = dose: 100.0 mg/kg/injection, schedule: Q04DX003 (ip), vehicle: water
[8] = dose: 100.0 mg/kg/injection, schedule: Q04DX003 (ip), vehicle: saline
[9] = dose: 200.0 mg/kg/injection, schedule: Q04DX003 (ip), vehicle: saline
[10] = dose: 400.0 mg/kg/injection, schedule: Q04DX003 (ip), vehicle: saline

Measured: T/C

CCc1cc2c(cc1C(=O)/C=C\C(=O)O)C(C)(C)CCC2(C)C
inactive: dose: 0.5 mg/kg/injection, schedule: Q01DX001 (ip), vehicle: saline 96 % of control | dose: 1.0 mg/kg/injection, schedule: Q01DX001 (ip), vehicle: saline 100 % of control | dose: 2.0 mg/kg/injection, schedule: Q01DX001 (ip), vehicle: saline 98 % of control | dose: 2.97 mg/kg/injection, schedule: Q01DX001 (ip), vehicle: saline 100 % of control | dose: 3.75 mg/kg/injection, schedule: Q01DX009 (ip), vehicle: saline with Tween-80 98 % of control | dose: 3.75 mg/kg/injection, schedule: Q04DX003 (ip), vehicle: acetone 101 % of control | dose: 4.5 mg/kg/injection, schedule: Q01DX001 (ip), vehicle: saline 104 % of control | dose: 6.75 mg/kg/injection, schedule: Q01DX001 (ip), vehicle: saline 104 % of control | dose: 7.5 mg/kg/injection, schedule: Q01DX009 (ip), vehicle: saline with Tween-80 94 % of control | dose: 7.5 mg/kg/injection, schedule: Q04DX003 (ip), vehicle: acetone 108 % of control | dose: 9.9 mg/kg/injection, schedule: Q01DX001 (ip), vehicle: saline 96 % of control | dose: 15.0 mg/kg/injection, schedule: Q01DX001 (ip), vehicle: saline 98 % of control | dose: 15.0 mg/kg/injection, schedule: Q04DX003 (ip), vehicle: acetone 98 % of control

CCOC(=O)c1ccc(NC(=O)Oc2ccc(C=O)cc2OC)cc1
inactive: [1] 93 % of control | [2] 101 % of control | [3] 95 % of control

O=S=Nc1c(Cl)cc(Cl)cc1Cl
inactive: [1] 101 % of control | [2] 104 % of control | [3] 108 % of control

O=c1ccc2cc3oc(=O)ccc3cc2o1
inactive: dose: 100.0 mg/kg/injection, schedule: Q01DX001 (ip), vehicle: saline with Tween-80 90 % of control | dose: 200.0 mg/kg/injection, schedule: Q01DX001 (ip), vehicle: saline with Tween-80 97 % of control | dose: 400.0 mg/kg/injection, schedule: Q01DX001 (ip), vehicle: saline with Tween-80 90 % of control

CN(C(=O)N(CCCl)N=O)C1CCCCC1
inactive: dose: 75.0 mg/kg/injection, schedule: Q01DX001 (ip), vehicle: saline 109 % of control | dose: 150.0 mg/kg/injection, schedule: Q01DX001 (ip), vehicle: saline 93 % of control

CCCCNC(=O)Nc1c(C)cccc1C
inactive: [4] 99 % of control | dose: 100.0 mg/kg/injection, schedule: Q04DX003 (ip), vehicle: gum acacia 92 % of control | [5] 87 % of control | dose: 200.0 mg/kg/injection, schedule: Q04DX003 (ip), vehicle: gum acacia 91 % of control | [6] 87 % of control | dose: 400.0 mg/kg/injection, schedule: Q04DX003 (ip), vehicle: gum acacia 92 % of control

FC(F)(F)c1ccc2c(c1)N(CCCNCCN1CCOCC1)c1ccccc1S2
inactive: dose: 3.12 mg/kg/injection, schedule: Q01DX009 (ip), vehicle: saline 117 % of control | dose: 6.25 mg/kg/injection, schedule: Q01DX009 (ip), vehicle: saline 101 % of control | dose: 12.5 mg/kg/injection, schedule: Q01DX009 (ip), vehicle: saline 101 % of control | dose: 25.0 mg/kg/injection, schedule: Q01DX009 (ip), vehicle: saline 90 % of control | dose: 25.0 mg/kg/injection, schedule: Q04DX003 (ip), vehicle: saline 102 % of control | dose: 50.0 mg/kg/injection, schedule: Q04DX003 (ip), vehicle: saline 123 % of control

CCCCCCCCCCCCC(O)C(=O)O (stereo not drawn)
inactive: dose: 100.0 mg/kg/injection, schedule: Q04DX003 (ip), vehicle: Klucel (hydroxypropylcellulose) (HPC) 95 % of control | dose: 200.0 mg/kg/injection, schedule: Q04DX003 (ip), vehicle: Klucel (hydroxypropylcellulose) (HPC) 95 % of control | dose: 400.0 mg/kg/injection, schedule: Q04DX003 (ip), vehicle: Klucel (hydroxypropylcellulose) (HPC) 94 % of control

CCCCCCN(CCCCCC)CC(=O)Nc1ccc(S(=O)(=O)c2ccc(NC(=O)CN(CCCCCC)CCCCCC)cc2)cc1
inactive: dose: 25.0 mg/kg/injection, schedule: Q01DX001 (ip), vehicle: carboxymethylcellulose (CMC) 114 % of control | dose: 50.0 mg/kg/injection, schedule: Q01DX001 (ip), vehicle: carboxymethylcellulose (CMC) 97 % of control

NC(=O)c1ncc(-c2ccccc2)[nH]c1=O
inactive: dose: 100.0 mg/kg/injection, schedule: Q01DX009 (ip), vehicle: saline 105 % of control | dose: 200.0 mg/kg/injection, schedule: Q01DX009 (ip), vehicle: saline 92 % of control

CC(=O)Nc1ccc2[nH]c(C)cc(=O)c2c1
inactive: dose: 100.0 mg/kg/injection, schedule: Q01DX009 (ip), vehicle: water 98 % of control | [7] 110 % of control | dose: 200.0 mg/kg/injection, schedule: Q01DX009 (ip), vehicle: water 96 % of control | dose: 200.0 mg/kg/injection, schedule: Q04DX003 (ip), vehicle: water 110 % of control | dose: 400.0 mg/kg/injection, schedule: Q01DX009 (ip), vehicle: water 100 % of control | dose: 400.0 mg/kg/injection, schedule: Q04DX003 (ip), vehicle: water 107 % of control

O=C(O)CCCCCn1nnc2c(=O)[nH]cnc21
inactive: [8] 106 % of control | [9] 106 % of control | [10] 101 % of control

O=C(Nc1ccc(Cl)c(C(F)(F)F)c1)OCc1ccco1
inactive: [4] 93 % of control | [5] 100 % of control | [6] 92 % of control

CN(C)Cc1cccc(N)c1
inactive: dose: 12.5 mg/kg/injection, schedule: Q01DX009 (ip), vehicle: water 102 % of control | dose: 25.0 mg/kg/injection, schedule: Q01DX009 (ip), vehicle: water 100 % of control | dose: 25.0 mg/kg/injection, schedule: Q04DX003 (ip), vehicle: water 104 % of control | dose: 50.0 mg/kg/injection, schedule: Q01DX009 (ip), vehicle: water 100 % of control | dose: 50.0 mg/kg/injection, schedule: Q04DX003 (ip), vehicle: water 95 % of control | [7] 96 % of control and 102 % of control

O=C(O)C1C=CCC(C(=O)O)C1 (stereo not drawn)
inactive: [8] 98 % of control | [9] 108 % of control | [10] 95 % of control

O=C1C(NC2CCCCC2)=C(c2ccccc2)c2ccccc21
inactive: dose: 50.0 mg/kg/injection, schedule: Q01DX001 (ip), vehicle: Klucel (hydroxypropylcellulose) (HPC) 94 % of control | dose: 100.0 mg/kg/injection, schedule: Q01DX001 (ip), vehicle: Klucel (hydroxypropylcellulose) (HPC) 92 % of control | dose: 200.0 mg/kg/injection, schedule: Q01DX001 (ip), vehicle: Klucel (hydroxypropylcellulose) (HPC) 94 % of control

C=C(C)C1Cc2c(ccc3c(=O)c4c(oc23)C(O)Oc2cc(OC)c(OC)cc2-4)O1 (stereo not drawn)
inactive: [1] 93 % of control | [2] 95 % of control | [3] 97 % of control

CCCCC(N)P(=O)(O)O (stereo not drawn)
inactive: dose: 25.0 mg/kg/injection, schedule: Q04DX002 (ip), vehicle: saline 110 % of control | dose: 50.0 mg/kg/injection, schedule: Q04DX002 (ip), vehicle: saline 105 % of control | dose: 100.0 mg/kg/injection, schedule: Q04DX002 (ip), vehicle: saline 95 % of control
